We go through 22 compounds from patent US9732047B2, “N-alkoxyamide conjugates as imaging agents” (Lantheus Medical Imaging, Inc., priority 2008, dated 2017).

Data set [1] concerns Aorta bearing atherosclerotic plaque. Put plainly: Ex-vivo blood vessel binding assay. On the set-up: species or system New Zealand white rabbits. The note with it: 153Gd-labeled compound 0.135 μCi in PBS, 2 h at 37° C., plaque-bearing rabbit aorta sections; percentage of initial activity. The protocol: Aorta bearing atherosclerotic plaque was obtained from New Zealand white rabbits that were balloon stripped along the abdominal aorta and placed on a high fat diet (0.5% cholesterol) for 16-22 weeks. Vascular injury was produced with a 4-F Fogarty catheter along the abdominal aorta and right iliofemoral artery. This procedure generates an accelerated complex lesion development with a lipid rich core covered by a fibrous cap in rabbits. Harvested aorta sections (0.5 cm) were incubated with 0.135 μCi of ^153Gd-labeled compound diluted in phosphate buffered saline (450 μL) for 2 h at 37° C. The supernatant was removed and analyzed by HPLC to assay compound stability. The tissue section was then washed with phosphate buffered saline (3×10 mL), then resuspended (10 mL) and incubated at 37° C. an additional 1 h. The supernatant was then removed, the washing process repeated and the tissue finally counted on a gamma counter. The amount of compound bound to the tissue was determined as a percentage of the initial activity according to the following formula: […]

Data set [2] deals with aorta. To be noted: 60 min post injection; for aorta uptake (% ID/g): ApoE mice on high-fat diet 35-42 weeks, 0.3-0.4 mCi/kg bolus via tail vein; for aorta:blood / aorta:heart: ApoE mice, uptake ratio. The protocol:
The apolipoprotein E (ApoE) knockout mouse is a model of hypercholesterolemia that develops atherosclerotic lesions in the brachiocephalic artery, the aortic arch and the abdominal aorta. Mice were fed a high-fat diet to accelerate plaque formation and compounds were tested in the mice between 35-42 weeks on diet. Test compounds were administered at 0.3-0.4 mCi/kg to anesthetized mice in a single, bolus injection via the tail vein. Blood samples were collected via the tail between 0-30 min post injection for pharmacokinetic analysis and mice were euthanized by CO2 at 60 min for tissue harvesting. The aorta was first flushed with saline through the left ventricle exiting via the femoral vein then removed from the heart to the renal bifurcation; additional biological samples were also collected (blood, muscle, liver, kidney, bile, urine, heart, femur, reproductive organ, lung, spleen and innominate artery). All samples were weighed and assayed for radioactivity; uptake is expressed as a percentage of injected dose per gram of tissue (% ID/g).

For data set [3], the system named is aorta. The note with it: plaque rabbit, 60 min post injection. The protocol: Atherosclerosis was induced in New Zealand White male rabbits (3 kg) with aortic balloon endothelial injury (vide supra) followed by feeding a 0.5% cholesterol diet for 22 weeks. Test compounds were administered at 0.01-0.05 mCi/kg to anesthetized rabbits in a single, bolus injection via the marginal ear vein. Blood samples were collected from the central ear artery at 0, 2, 5, 7, 10, 15, 30 and 60 min post injection. Rabbits were euthanized at 60 min post injection for tissue harvesting (blood, muscle, bile, urine, kidney, liver, spleen, heart, lung, colon, small intestine, stomach, testes and in some cases, sternum, ligament and right ear). Abdominal aorta (upper, middle, and lower) and left and right femoral arteries were also collected. All samples were weighed and assayed for radioactivity; uptake is expressed as percentage of injected dose per gram of tissue (% ID/g).

Like-named read-outs stand apart in the source and are kept apart here.

Regarding `[153Gd+3].[NH3+][C@H](CCc1ccccc1)C(=O)NOCc1ccc(CNC(=O)CN(CCN(CC(=O)[O-])CC(=O)[O-])CCN(CC(=O)[O-])CC(=O)[O-])cc1` [Example 37], in data set [1], the “% bound” value is 12.8%. Also, in the data set with aorta [2], the “aorta uptake (% ID/g)” value is reported as 10.4 ± 1.4 % ID/g, the “aorta:blood” value came to 4.2 and the “aorta:heart” value worked out at 16.2. Besides, the “aorta (% ID/g ± SD)” value with aorta [3] (0.01-0.05 mCi/kg bolus via marginal ear vein) was 0.087 ± 0.010 % ID/g. In the data set on aorta [3], the “aorta:blood” value worked out at 2.1 and the “aorta:heart” value is recorded as 4.6.

Turning to `[153Gd+3].[NH3+][C@@H](CCc1ccccc1)C(=O)NOCc1ccc(CNC(=O)CN(CCN(CC(=O)[O-])CC(=O)[O-])CCN(CC(=O)[O-])CC(=O)[O-])cc1` [Example 39], in data set [1], the “% bound” value is listed as 15.8%. In addition, in the data set on aorta [2], the “aorta uptake (% ID/g)” value is on record as 6.1 ± 0.4 % ID/g, the “aorta:blood” value came out at 11.4 and the “aorta:heart” value is 13.6.

With `CC(C)C[C@@H]([NH3+])C(=O)NOCCCCCCNC(=O)CN(CCN(CC(=O)[O-])CC(=O)[O-])CCN(CC(=O)[O-])CC(=O)[O-].[153Gd+3]` [Example 40], in data set [1], the “% bound” value was found to be 7.2%. In the data set with aorta [2], the “aorta uptake (% ID/g)” value was 3.6 ± 0.3 % ID/g, the “aorta:blood” value is reported as 3.4 and the “aorta:heart” value worked out at 8.4.

Take `[153Gd+3].[NH3+][C@H](Cc1ccc(-c2ccccc2)cc1)C(=O)NOCCCCCCNC(=O)CN(CCN(CC(=O)[O-])CC(=O)[O-])CCN(CC(=O)[O-])CC(=O)[O-]` [Example 41]: the “% bound” value in data set [1] was determined as 28.7%. Also, in the data set with aorta [2], the “aorta uptake (% ID/g)” value was 2.0 ± 0.1 % ID/g, the “aorta:blood” value worked out at 7.2 and the “aorta:heart” value is 20.4.

For `[153Gd+3].[NH3+][C@H](CC1CCCCC1)C(=O)NOCCCCCCNC(=O)CN(CCN(CC(=O)[O-])CC(=O)[O-])CCN(CC(=O)[O-])CC(=O)[O-]` [Example 42], the “% bound” value in data set [1] worked out at 17.9%. Moreover, in the data set on aorta [2], the “aorta uptake (% ID/g)” value turned out to be 8.1 ± 1.1 % ID/g, the “aorta:blood” value came out at 8.0 and the “aorta:heart” value is 18.0.

Regarding `[153Gd+3].[NH3+][C@H](Cc1c[nH]c2ccccc12)C(=O)NOCCCc1ccc(CNC(=O)CN(CCN(CC(=O)[O-])CC(=O)[O-])CCN(CC(=O)[O-])CC(=O)[O-])cc1` [Example 43], the “% bound” value in data set [1] is 27.1%. For the same compound, in the data set on aorta [2], the “aorta uptake (% ID/g)” value is listed as 6.0 ± 1.7 % ID/g, the “aorta:blood” value was found to be 2.7 and the “aorta:heart” value was found to be 9.0.

As to `[153Gd+3].[NH3+][C@H](CCc1ccccc1)C(=O)NOCCCc1ccc(CNC(=O)CN(CCN(CC(=O)[O-])CC(=O)[O-])CCN(CC(=O)[O-])CC(=O)[O-])cc1` [Example 44], the “% bound” value in data set [1] was 27.3%. Moreover, in the data set with aorta [2], the “aorta uptake (% ID/g)” value is given as 8.4 ± 0.2 % ID/g, the “aorta:blood” value was 3.2 and the “aorta:heart” value was found to be 12.5.

Take `[153Gd+3].[NH3+][C@H](CCc1ccccc1)C(=O)NOCCCCCCNC(=O)CN(CCN(CC(=O)[O-])CC(=O)[O-])CCN(CC(=O)[O-])CC(=O)[O-]` [Example 45]: in data set [1], the “% bound” value was 14.4%. Also, in the data set on aorta [2], the “aorta uptake (% ID/g)” value was 9.0 ± 0.2 % ID/g, the “aorta:blood” value was 2.1 and the “aorta:heart” value is 12.1.

With `CC(C)C[C@@H]([NH3+])C(=O)NOc1ccc(CNC(=O)CN(CCN(CC(=O)[O-])CC(=O)[O-])CCN(CC(=O)[O-])CC(=O)[O-])cc1.[153Gd+3]` [Example 46], in data set [1], the “% bound” value is recorded as 0.9%. In the data set with aorta [2], the “aorta uptake (% ID/g)” value worked out at 0.9 ± 0.2 % ID/g, the “aorta:blood” value is 1.1 and the “aorta:heart” value came to 4.9.

In the case of `[153Gd+3].[NH3+][C@H](CCc1ccccc1)C(=O)NOc1ccc(CNC(=O)CN(CCN(CC(=O)[O-])CC(=O)[O-])CCN(CC(=O)[O-])CC(=O)[O-])cc1` [Example 47], the “% bound” value in data set [1] was 6.6%. For the same compound, in the data set with aorta [2], the “aorta uptake (% ID/g)” value is on record as 4.7 ± 0.4 % ID/g, the “aorta:blood” value is on record as 0.7 and the “aorta:heart” value is reported as 4.8.

`CC(C)C[C@@H]([NH3+])C(=O)NOCCc1ccc(CNC(=O)CN(CCN(CC(=O)[O-])CC(=O)[O-])CCN(CC(=O)[O-])CC(=O)[O-])cc1.[153Gd+3]` [Example 49]: in data set [1], the “% bound” value is reported as 9.1%. In addition, in the data set with aorta [2], the “aorta uptake (% ID/g)” value is on record as 4.9 ± 0.2 % ID/g, the “aorta:blood” value is 5.5 and the “aorta:heart” value was 22.9.

On to `[153Gd+3].[NH3+][C@H](CCc1ccccc1)C(=O)NOCCc1ccc(CNC(=O)CN(CCN(CC(=O)[O-])CC(=O)[O-])CCN(CC(=O)[O-])CC(=O)[O-])cc1` [Example 50], for which, in data set [1], the “% bound” value came to 24.2%. Besides, in the data set on aorta [2], the “aorta uptake (% ID/g)” value came to 10.4 ± 2.4 % ID/g, the “aorta:blood” value came out at 3.7 and the “aorta:heart” value is given as 13.5.

In the case of `CONC(=O)C(CCc1ccccc1)NCc1ccc(CNC(=O)CN2CCN(CC(=O)[O-])CCN(CC(=O)[O-])CCN(CC(=O)[O-])CC2)cc1.[153Gd+3]` (stereo not drawn) [Example 52], in data set [1], the “% bound” value is given as 6.9%. Moreover, in the data set with aorta [2], the “aorta uptake (% ID/g)” value stood at 6.1 ± 1.2 % ID/g, the “aorta:blood” value is 2.0 and the “aorta:heart” value stood at 9.2.

As for `O=C([O-])CN1CCN(CC(=O)[O-])CCN(CC(=O)NCc2ccc(CNC(CCc3ccccc3)C(=O)NOCc3ccccc3)cc2)CCN(CC(=O)[O-])CC1.[153Gd+3]` (stereo not drawn) [Example 53], in the data set with aorta [2], the “aorta uptake (% ID/g)” value is reported as 1.5 ± 0.1 % ID/g, the “aorta:blood” value is reported as 0.8 and the “aorta:heart” value was 4.2.

Turning to `CONC(=O)[C@H](N)Cc1ccc(CNC(=O)CN2CCN(CC(=O)[O-])CCN(CC(=O)[O-])CCN(CC(=O)[O-])CC2)cc1.[153Gd+3]` [Example 54], in the data set with aorta [2], the “aorta uptake (% ID/g)” value is 2.5 ± 0.5 % ID/g, the “aorta:blood” value is recorded as 1.2 and the “aorta:heart” value stood at 5.3.

Take `N[C@H](Cc1ccc(CNC(=O)CN2CCN(CC(=O)[O-])CCN(CC(=O)[O-])CCN(CC(=O)[O-])CC2)cc1)C(=O)NOCc1ccccc1.[153Gd+3]` [Example 55]: in the data set with aorta [2], the “aorta uptake (% ID/g)” value is on record as 3.0 ± 2.3 % ID/g, the “aorta:blood” value was found to be 1.0 and the “aorta:heart” value is given as 8.8.

`CC(C)C[C@@H]([NH3+])C(=O)NOCc1ccc(CNC(=O)CN(CCN(CC(=O)[O-])CC(=O)[O-])CCN(CC(=O)[O-])CC(=O)[O-])cc1.[153Gd+3]` [Example 56]: in the data set on aorta [2], the “aorta uptake (% ID/g)” value turned out to be 8.5 ± 1.8 % ID/g, the “aorta:blood” value is reported as 5.5 and the “aorta:heart” value was 21.2.

Take `[153Gd+3].[NH3+][C@H](Cc1ccc2ccccc2c1)C(=O)NOCc1ccc(CNC(=O)CN(CCN(CC(=O)[O-])CC(=O)[O-])CCN(CC(=O)[O-])CC(=O)[O-])cc1` [Example 57]: in data set [1], the “% bound” value is recorded as 30.6%. In addition, in the data set on aorta [2], the “aorta uptake (% ID/g)” value is 11.1 ± 0.3 % ID/g, the “aorta:blood” value stood at 5.0 and the “aorta:heart” value stood at 17.8.

For the compound `[153Gd+3].[NH3+][C@H](Cc1ccccc1)C(=O)NOCc1ccc(CNC(=O)CN(CCN(CC(=O)[O-])CC(=O)[O-])CCN(CC(=O)[O-])CC(=O)[O-])cc1` [Example 58], the “% bound” value in data set [1] came out at 7.3%. In the data set on aorta [2], the “aorta uptake (% ID/g)” value was determined as 6.1 ± 0.2 % ID/g, the “aorta:blood” value came out at 6.5 and the “aorta:heart” value was found to be 17.9.

As to `CC(C)C[C@@H](N)C(=O)NOCc1ccc(CNC(=O)CN2CCN(CC(=O)[O-])CCN(CC(=O)[O-])CCN(CC(=O)[O-])CC2)cc1.[153Gd+3]` [Example 59], the “% bound” value in data set [1] is listed as 5.2%. For the same compound, in the data set on aorta [2], the “aorta uptake (% ID/g)” value stood at 8.2 ± 1.3 % ID/g, the “aorta:blood” value amounted to 3.7 and the “aorta:heart” value was 15.4.

On to `[153Gd+3].[NH3+][C@H](Cc1cc2ccccc2[nH]1)C(=O)NOCc1ccc(CNC(=O)CN(CCN(CC(=O)[O-])CC(=O)[O-])CCN(CC(=O)[O-])CC(=O)[O-])cc1` [Example 61], for which the “% bound” value in data set [1] is recorded as 19.9%. Further, in the data set with aorta [2], the “aorta uptake (% ID/g)” value is listed as 19.3 ± 0.2 % ID/g, the “aorta:blood” value came out at 10.9 and the “aorta:heart” value was 20.4.

As for `[153Gd+3].[NH3+][C@H](Cc1ccc(O)cc1)C(=O)NOCc1ccc(CNC(=O)CN(CCN(CC(=O)[O-])CC(=O)[O-])CCN(CC(=O)[O-])CC(=O)[O-])cc1` [Example 63], in data set [1], the “% bound” value is listed as 11.7%. Moreover, in the data set with aorta [2], the “aorta uptake (% ID/g)” value came out at 8.7 ± 0.4 % ID/g, the “aorta:blood” value is 6.0 and the “aorta:heart” value was found to be 13.0.
